Test results taken from patent US11427615B2, “Peptide compound and application thereof, and composition containing peptide compound” (XDCEXPLORER (SHANGHAI) CO., LTD., priority 2017, dated 2022).
pEC50: −log10 of the molar value. Like-named read-outs stand apart in the source and are kept apart here. Non-standard residues stand in square brackets, D forms with d. Residues, ends and D or L forms follow the SMILES beside them. *: point of attachment. X2 = CCCCCCCCCCCC(=O)NCCOCCOCCOCCOCCOCCn1cc(CC(=O)*)nn1; dPhe(2,4-Cl2) = N[C@H](Cc1ccc(Cl)cc1Cl)C(=O)O; C18 diacid = O=C(O)CCCCCCCCCCCCCCCCC(=O)*; PEG8 = NCCOCCOCCOCCOCCOCCOCCOCCOCCC(=O)O; Pro(4,4-F2) = O=C(O)[C@@H]1CC(F)(F)CN1; dAla(2-furyl) = N[C@H](Cc1ccco1)C(=O)O; Arg(Me) = CNC(=N)NCCC[C@H](N)C(=O)O; Palmitoyl = CCCCCCCCCCCCCCCC(=O)*; Hyp = O=C(O)[C@@H]1C[C@@H](O)CN1; AllylGly = C=CC[C@H](N)C(=O)O; PEG4 = NCCOCCOCCOCCOCCC(=O)O; Ac6c = NC1(C(=O)O)CCCCC1; AEEA = NCCOCCOCC(=O)O; azaGly = NNC(=O)O

Legend:
[1] = target: T1, human kiss1 receptor (GPR54) (Homo sapiens, UniProt Q969F8); test: Kiss1 receptor (GPR54) binding activity of agonists, FRET detection in NFAT-bla CHO-K1 cells; type: cell-based; conditions: for pEC50: GPR54, measured according to the method of effect Embodiment 1, preliminary data, read-out: Preliminary measurement data (GPR54) EC50
T1 construct: host or cells: NFAT-bla CHO-K1 cells (Chinese hamster ovary), purchased recombinant cell line
T1 sequence (Q969F8 whole entry): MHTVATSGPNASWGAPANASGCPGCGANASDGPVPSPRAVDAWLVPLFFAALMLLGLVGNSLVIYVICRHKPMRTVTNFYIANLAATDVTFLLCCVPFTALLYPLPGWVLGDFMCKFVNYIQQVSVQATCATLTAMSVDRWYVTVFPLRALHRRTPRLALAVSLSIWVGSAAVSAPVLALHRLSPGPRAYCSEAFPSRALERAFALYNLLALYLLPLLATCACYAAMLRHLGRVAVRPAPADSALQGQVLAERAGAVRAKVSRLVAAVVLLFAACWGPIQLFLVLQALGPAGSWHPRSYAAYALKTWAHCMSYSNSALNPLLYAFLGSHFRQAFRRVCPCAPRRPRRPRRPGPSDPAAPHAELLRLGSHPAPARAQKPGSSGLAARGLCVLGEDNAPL

[2] = Plasma stability, LC-MS/MS; type: in vitro ADME; conditions: rat plasma, 37° C., final concentration 500 ng/ml, time points 0 minutes, 1, 2 and 4 hours; calculated half-life; read-out: Rat plasma (T½ (h)) (converted)
Procedure: Effect Embodiment 2 Experimental Data on Plasma Stability of Some Compounds
1. Preparation of 50 mM Phosphate Buffer:
The 5.750 g Na2HPO4, 1.141 g NaH2PO4. and 4.095 g NaCl (Shanghai Titan) weighed was dissolved in 1000 mL ultrapure water and the pH was adjusted to 7.4 to give 50 mM phosphate buffer containing 70 mM NaCl. The prepared phosphoric acid buffer solution was stored in the refrigerator at 4° C. and was valid for one week.
2. Preparation of compound stock solution:
1). 5 mg/mL of test compound: 5 mg of compound was weighted and dissolved in 1 mL of DMSO.
2). 20 mM control: 2.728 mg of Fuka was dissolved in 0.5 mL of DMSO. 3.878 mg of benzalkonium bromide was dissolved in 0.5 mL of DMSO (Amresco).
3. Preparation of experimental plasma:
The frozen plasma (human: Shanghai wise chemistry; Rats and mice: Shanghai Sciple-Bikai; Dogs and monkeys: Suzhou Xishan Zhongke) were taken out of the −80° C. refrigerator, immediately placed in a 37° C. water bath, slightly shaken to melt it, then the thawed plasma was poured into a centrifuge tube, centrifuged at 3000 rpm for 8 min, and the supernatant was taken for experiments. The pH value of plasma was detected by a pH Meter & Sensor (METTLER TOLEDO). Only plasma with a pH value between 7.4 and 8 was used in the experiment. The plasma was placed on an ice bath for later use.
4. Preparation of administration solution:
1). 125 µg/ml test compound solution: 5 μL of 5 mg/mL test compound (see step 2) was added into 195 μL DMSO; 500 μM control solution: 20 mM control stock solution (see step 2) was added to 195 μL DMSO.
2). 0.5% BSA phosphate buffer solution: 0.05 g BSA was added to 10 mL phosphate buffer solution (see step 1);
3). 5 µg/ml of test compound administration solution: 40 μL of 125 μg/mL of test compound solution was added into 960 μL 0.5% BSA phosphate buffer solution, stirred and mixed evenly, and the administration solution was preheated in a 37° C. water bath for 5 minutes.
20 μM reference substance administration solution: 40 μL of 500 μM reference substance administration solution was added into 960 μL 0.5% BSA phosphate buffer solution, stirred and mixed evenly, and the administration solution was preheated in a 37° C. water bath for 5 minutes.
5. 10 μL of 5 μg/mL of the test compound and 20 μM of the control substance administration solution were respectively added to the wells set at different time points (0 minutes, 1 hour, 2 hours and 4 hours) on the 96-well plate, and the number of duplicate samples was 3.
6. 500 μL of ACN (IS) containing 5% FA was added to the well set at 0 minute hour, then 90 μL of plasma was added, after mixing, sealing film was pasted and placed at 4° C. (number of duplicate samples was 3).
7. 90 μL of plasma was added to the wells with set time points of 1 hour, 2 hours and 4 hours respectively, the number of duplicate samples was 3, and timing was started (the final concentration of the test compound was 500 ng/ml; The control was 2 μM).
9. All samples (0 minutes, 1 hour, 2 hours and 4 hours) at different time points on a 96-well plate were shaken for 10 minutes at 600 rpm/min on an oscillator (MTS 2/4, IKA), and then the samples were centrifuged for 15 minutes at 5594×g in a centrifuge (Multifuge×3R, thermo Fisher).
10. 150 μL of supernatant was taken from the centrifuged sample and sent to LC-MS/MS for analysis (conventional polypeptide LC-MS/MS analysis method).

Row | SMILES | pEC50 [1] | half-life at 500 ng/ml [2] | EC50 ([1]; NFAT-bla CHO-K1 cells that express human kiss1 receptor (GPR54), FRET, cells cultured with compound for 4 hours, read-out: GPR54 EC50/nM)
1 | CNC(=N)NCCC[C@H](NC(=O)[C@H](CC(C)C)NC(=O)NNC(=O)[C@H](Cc1ccccc1)NC(=O)[C@@H](NC(=O)[C@H](CC(N)=O)NC(=O)[C@@H]1C[C@@H](O)CN1C(=O)[C@@H](Cc1ccc(O)cc1)NC(=O)COCCOCCNC(=O)COCCOCCNC(=O)CCCCCCCCCCCCCCCCC(=O)O)[C@@H](C)O)C(=O)N[C@@H](Cc1c[nH]c2ccccc12)C(N)=O [YA-273, C 18 diacid-OEG-OEG-D-Tyr-Hyp-Asn-Thr-Phe-azaGly-Leu-Arg(Me)-Trp-NH2] ({C18 diacid-AEEA-AEEA}-[dY][Hyp]NTF[azaGly]L[Arg(Me)]W-NH2) | 10.30 | 166 h | 
2 | CCCCCCCCCCCCCCCC(=O)NCCOCCOCCOCCOCCOCCOCCOCCOCCC(=O)NCC(=O)NCC(=O)N[C@H](Cc1ccco1)C(=O)N1CC(F)(F)C[C@H]1C(=O)N[C@@H](CC(N)=O)C(=O)N[C@H](C(=O)N[C@@H](Cc1ccccc1)C(=O)NC1(C(=O)N[C@@H](CC(C)C)C(=O)N[C@@H](CCCNC(=N)NC)C(=O)N[C@@H](Cc2c[nH]c3ccccc23)C(N)=O)CCCCC1)[C@@H](C)O [YA-220, Palm-PEG8-Gly-Gly-D-3Fua-Pro(diF)-Asn-Thr-Phe-A6c-Leu-Arg(Me)-Trp-NH2] ({Palmitoyl-PEG8}-GG[dAla(2-furyl)][Pro(4,4-F2)]NTF[Ac6c]L[Arg(Me)]W-NH2) | 10.64 | 59 h | 
3 | CCCCCCCCCCCCCCCC(=O)NCCOCCOCCOCCOCCOCCOCCOCCOCCC(=O)NCC(=O)NCC(=O)N[C@H](Cc1ccc(O)cc1)C(=O)N1C[C@H](O)C[C@H]1C(=O)N[C@@H](CC(N)=O)C(=O)N[C@H](C(=O)N[C@@H](Cc1ccccc1)C(=O)NC1(C(=O)N[C@@H](CC(C)C)C(=O)N[C@@H](CCCNC(=N)NC)C(=O)N[C@@H](Cc2c[nH]c3ccccc23)C(N)=O)CCCCC1)[C@@H](C)O [YA-264, Palm-PEG 8-Gly-Gly-D-Tyr-Hyp-Asn-Thr-Phe-A6C-Leu-Arg(Me)-Trp-NH2] ({Palmitoyl-PEG8}-GG[dY][Hyp]NTF[Ac6c]L[Arg(Me)]W-NH2) | 10.54 | 13 h | 
4 | CCCCCCCCCCCCCCCC(=O)NCCOCCOCCOCCOCCOCCOCCOCCOCCC(=O)N[C@H](Cc1ccc(O)cc1)C(=O)N1C[C@H](O)C[C@H]1C(=O)N[C@@H](CC(N)=O)C(=O)N[C@H](C(=O)N[C@@H](Cc1ccccc1)C(=O)NNC(=O)N[C@@H](CC(C)C)C(=O)N[C@@H](CCCNC(=N)NC)C(=O)N[C@@H](Cc1c[nH]c2ccccc12)C(N)=O)[C@@H](C)O [YA-298, Palm-PEG8-D-Tyr-Hyp-Asn-Thr-Phe-azaGly-Leu-Arg(Me)-Trp-NH2] ({Palmitoyl-PEG8}-[dY][Hyp]NTF[azaGly]L[Arg(Me)]W-NH2) | 10.80 | 12.7 h | 
5 | CNC(=N)NCCC[C@H](NC(=O)[C@H](CC(C)C)NC(=O)NNC(=O)[C@H](Cc1ccccc1)NC(=O)[C@@H](NC(=O)[C@H](CC(N)=O)NC(=O)C1(NC(=O)[C@@H](Cc2ccco2)NC(C)=O)CCCCC1)[C@@H](C)O)C(=O)N[C@@H](Cc1c[nH]c2ccccc12)C(N)=O [YA-271, Ac-(D-2Fua)-A6c-Asn-Thr-Phe-azaGly-Leu-Arg(Me)-Trp-NH2] (Ac-[dAla(2-furyl)][Ac6c]NTF[azaGly]L[Arg(Me)]W-NH2) | 10.60 | 15.6 h | 
6 | CNC(=N)NCCC[C@H](NC(=O)[C@H](CC(C)C)NC(=O)NNC(=O)[C@H](Cc1ccccc1)NC(=O)[C@@H](NC(=O)[C@H](CC(N)=O)NC(=O)[C@@H]1CC(F)(F)CN1C(=O)[C@@H](Cc1ccc(Cl)cc1Cl)NC(C)=O)[C@@H](C)O)C(=O)N[C@@H](Cc1c[nH]c2ccccc12)C(N)=O [YA-180, Ac-[D-Phe(2,4-DiCl)]-Pro(diF)-Asn-Thr-Phe-azaGly-Leu-Arg(Me)-Trp-NH2] (Ac-[dPhe(2,4-Cl2)][Pro(4,4-F2)]NTF[azaGly]L[Arg(Me)]W-NH2) |  | 9.63 h | 
7 | CCCCCCCCCCCC(=O)NCCOCCOCCOCCOCCOCCn1cc(CC(=O)N[C@H](Cc2ccc(O)cc2)C(=O)N2C[C@H](O)C[C@H]2C(=O)N[C@@H](CC(N)=O)C(=O)N[C@H](C(=O)N[C@@H](Cc2ccccc2)C(=O)NNC(=O)N[C@@H](CC(C)C)C(=O)N[C@@H](CCCNC(=N)NC)C(=O)N[C@@H](Cc2c[nH]c3ccccc23)C(N)=O)[C@@H](C)O)nn1 [YA-326, Dodecanoyl-NH-PEG5-1,2,3-Triazole-Cyclic-Butanoyl-(D-Tyr)-Hyp-Asn-Thr-Phe-Azag-Leu-Arg(Me)-Trp-NH2] (X2-[dY][Hyp]NTF[azaGly]L[Arg(Me)]W-NH2) |  | 4.97 h | 

More lines, now with the values ahead:

Row | pEC50 [1] | half-life at 500 ng/ml [2] | EC50 ([1]; NFAT-bla CHO-K1 cells that express human kiss1 receptor (GPR54), FRET, cells cultured with compound for 4 hours, read-out: GPR54 EC50/nM) | SMILES
8 | 10.52 | 10.1 h | 0.03 nM | CNC(=N)NCCC[C@H](NC(=O)[C@H](CC(C)C)NC(=O)NNC(=O)[C@H](Cc1ccccc1)NC(=O)[C@@H](NC(=O)[C@H](CC(N)=O)NC(=O)[C@@H]1C[C@@H](O)CN1C(=O)[C@@H](Cc1ccc(O)cc1)NC(C)=O)[C@@H](C)O)C(=O)N[C@@H](Cc1c[nH]c2ccccc12)C(N)=O [YA-3, Ac-(D-Tyr)-Hyp-Asn-Thr-Phe-azaGly-Leu-Arg(Me)-trp-NH2] (Ac-[dY][Hyp]NTF[azaGly]L[Arg(Me)]W-NH2)
9 | 11.40 | 6.67 h |  | CNC(=N)NCCC[C@H](NC(=O)[C@H](CC(C)C)NC(=O)NNC(=O)[C@H](Cc1ccccc1)NC(=O)[C@@H](NC(=O)[C@H](CC(N)=O)NC(=O)[C@@H]1C[C@@H](O)CN1C(=O)[C@@H](Cc1ccc(O)cc1)NC(=O)CCOCCOCCOCCOCCNC(C)=O)[C@@H](C)O)C(=O)N[C@@H](Cc1c[nH]c2ccccc12)C(N)=O [YA-150, Ac-PEG4-(D-Tyr)-Hyp-Asn-Thr-Phe-azaGly-Leu-Arg(Me)-Trp-NH2] (Ac-[PEG4][dY][Hyp]NTF[azaGly]L[Arg(Me)]W-NH2)
10 | 9.88 | 2.05 h |  | CNC(=N)NCCC[C@H](NC(=O)[C@H](CC(C)C)NC(=O)C1(NC(=O)[C@H](Cc2ccccc2)NC(=O)[C@@H](NC(=O)[C@H](CC(N)=O)NC(=O)[C@@H]2C[C@@H](O)CN2C(=O)[C@@H](Cc2ccc(O)cc2)NC(C)=O)[C@@H](C)O)CCCCC1)C(=O)N[C@@H](Cc1c[nH]c2ccccc12)C(N)=O [YA-175, Ac-D-Tyr-Hyp-Asn-Thr-Phe-A6c-Leu-Arg(Me)-Trp-NH2] (Ac-[dY][Hyp]NTF[Ac6c]L[Arg(Me)]W-NH2)
11 |  | 9.42 h |  | CNC(=N)NCCC[C@H](NC(=O)[C@H](CC(C)C)NC(=O)NNC(=O)[C@H](Cc1ccccc1)NC(=O)[C@@H](NC(=O)[C@H](CC(N)=O)NC(=O)C1(NC(=O)[C@@H](Cc2ccc(O)cc2)NC(C)=O)CCCCC1)[C@@H](C)O)C(=O)N[C@@H](Cc1c[nH]c2ccccc12)C(N)=O [YA-172, Ac-D-Tyr-A6c-Asn-Thr-Phe-azaGly-Leu-Arg(Me)-Trp-NH2] (Ac-[dY][Ac6c]NTF[azaGly]L[Arg(Me)]W-NH2)
12 |  | 0.22 h |  | C=CC[C@H](NC(=O)[C@H](Cc1ccccc1)NC(=O)[C@@H](NC(=O)[C@H](CC(N)=O)NC(=O)[C@@H]1C[C@@H](O)CN1C(=O)[C@@H](Cc1ccc(O)cc1)NC(C)=O)[C@@H](C)O)C(=O)N[C@@H](CC(C)C)C(=O)N[C@@H](CCCNC(=N)NC)C(=O)N[C@@H](Cc1c[nH]c2ccccc12)C(N)=O [YA-350, Ac-(D-Tyr)-Hyp-Asn-Thr-Phe-Alg-Leu-Arg(Me)-Trp-NH2] (Ac-[dY][Hyp]NTF[AllylGly]L[Arg(Me)]W-NH2)
